The results in this text go back to BindingDB's records for patent US10065963 (Incyte Corporation, 2018).

The structures appear in SMILES notation.

The target of assay [1] is Tyrosine-protein kinase JAK1 (Homo sapiens, UniProt P23458). The assay can be described thus: In Vitro JAK Kinase Assay. As to conditions: pH 7.8; 25 °C.
Assay [2] deals with Phosphatidylinositol 4,5-bisphosphate 3-kinase catalytic subunit gamma isoform (Homo sapiens, UniProt P48736). The assay can be described thus: PI3K-gamma Scintillation Proximity Assay. The following applies: pH 6.7; 25 °C. How it is done:
PI3Kγ (p110γ) Recombinant Human Protein was purchased from Life technology (Grand Island, N.Y.). […] The final concentration of DMSO in the assay was 2%. […] ATP, 13 nM PI3Kγ. […] The final concentration of SPA beads is 1.0 mg/mL.
On the technique in general: In a scintillation proximity assay essentially only radioactivity close to the scintillant gives light.

The target in assay [3] is T1, Phosphatidylinositol 4,5-bisphosphate 3-kinase catalytic subunit delta isoform (Homo sapiens, UniProt O00329).
T1 sequence (O00329 whole entry): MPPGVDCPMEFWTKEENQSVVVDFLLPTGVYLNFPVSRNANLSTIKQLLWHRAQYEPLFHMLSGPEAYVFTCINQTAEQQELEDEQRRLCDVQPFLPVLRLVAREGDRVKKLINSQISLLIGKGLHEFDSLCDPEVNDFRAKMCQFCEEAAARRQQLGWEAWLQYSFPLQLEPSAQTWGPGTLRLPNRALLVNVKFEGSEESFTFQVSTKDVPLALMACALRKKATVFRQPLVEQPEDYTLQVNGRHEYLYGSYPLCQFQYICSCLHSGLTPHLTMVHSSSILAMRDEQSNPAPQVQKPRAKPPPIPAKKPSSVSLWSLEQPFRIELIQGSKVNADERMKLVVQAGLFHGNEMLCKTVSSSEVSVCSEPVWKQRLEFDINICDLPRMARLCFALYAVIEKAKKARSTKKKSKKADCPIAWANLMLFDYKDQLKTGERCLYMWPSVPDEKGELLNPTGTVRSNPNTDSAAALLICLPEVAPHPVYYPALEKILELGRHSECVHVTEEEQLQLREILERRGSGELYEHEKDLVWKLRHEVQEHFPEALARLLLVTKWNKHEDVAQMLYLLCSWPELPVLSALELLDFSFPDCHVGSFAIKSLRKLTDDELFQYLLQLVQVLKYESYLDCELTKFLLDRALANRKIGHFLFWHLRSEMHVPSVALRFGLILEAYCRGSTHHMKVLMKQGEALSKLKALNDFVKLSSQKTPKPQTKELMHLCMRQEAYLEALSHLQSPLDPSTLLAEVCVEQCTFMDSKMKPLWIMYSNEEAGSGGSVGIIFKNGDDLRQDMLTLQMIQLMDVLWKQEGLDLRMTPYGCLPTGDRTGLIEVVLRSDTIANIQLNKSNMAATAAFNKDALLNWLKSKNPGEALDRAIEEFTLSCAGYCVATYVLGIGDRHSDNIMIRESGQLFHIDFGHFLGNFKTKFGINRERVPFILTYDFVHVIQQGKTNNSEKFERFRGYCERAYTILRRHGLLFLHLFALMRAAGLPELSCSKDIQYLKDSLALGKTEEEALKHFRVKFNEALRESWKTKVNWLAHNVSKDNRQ
The assay can be described thus: PI3K-delta Scintillation Proximity Assay. The following applies: pH 6.7; 25 °C.

Chain of Phosphatidylinositol 4,5-bisphosphate 3-kinase catalytic subunit gamma isoform (P48736 whole entry, canonical isoform): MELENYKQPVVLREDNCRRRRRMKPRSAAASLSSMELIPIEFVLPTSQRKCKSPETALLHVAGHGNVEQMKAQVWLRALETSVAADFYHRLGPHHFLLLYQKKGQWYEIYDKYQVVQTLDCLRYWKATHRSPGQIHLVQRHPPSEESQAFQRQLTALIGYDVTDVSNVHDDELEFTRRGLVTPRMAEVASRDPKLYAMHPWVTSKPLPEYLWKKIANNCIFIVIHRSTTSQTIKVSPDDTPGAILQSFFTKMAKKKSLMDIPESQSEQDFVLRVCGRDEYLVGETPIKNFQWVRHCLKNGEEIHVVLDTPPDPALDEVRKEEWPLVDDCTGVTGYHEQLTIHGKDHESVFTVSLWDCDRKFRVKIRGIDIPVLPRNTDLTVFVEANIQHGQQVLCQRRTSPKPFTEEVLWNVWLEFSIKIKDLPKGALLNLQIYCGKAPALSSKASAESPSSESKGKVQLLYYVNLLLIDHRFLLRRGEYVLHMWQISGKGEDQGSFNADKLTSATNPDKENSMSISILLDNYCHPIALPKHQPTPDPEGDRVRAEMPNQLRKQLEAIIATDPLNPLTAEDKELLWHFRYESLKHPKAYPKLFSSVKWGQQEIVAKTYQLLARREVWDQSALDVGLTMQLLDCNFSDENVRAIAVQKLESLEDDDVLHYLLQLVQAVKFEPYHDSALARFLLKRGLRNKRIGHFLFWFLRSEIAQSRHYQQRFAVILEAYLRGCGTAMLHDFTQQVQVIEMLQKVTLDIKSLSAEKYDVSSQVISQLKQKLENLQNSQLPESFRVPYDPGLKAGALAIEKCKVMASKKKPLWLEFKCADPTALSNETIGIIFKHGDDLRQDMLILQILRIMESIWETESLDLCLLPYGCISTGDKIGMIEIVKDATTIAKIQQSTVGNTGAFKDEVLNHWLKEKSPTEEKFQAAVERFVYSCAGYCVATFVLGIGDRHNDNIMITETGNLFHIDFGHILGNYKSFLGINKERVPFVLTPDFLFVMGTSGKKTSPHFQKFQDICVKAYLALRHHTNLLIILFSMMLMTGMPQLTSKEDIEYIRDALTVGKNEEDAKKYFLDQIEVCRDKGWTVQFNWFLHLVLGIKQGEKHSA
Chain of Tyrosine-protein kinase JAK1 (P23458 whole entry, canonical isoform): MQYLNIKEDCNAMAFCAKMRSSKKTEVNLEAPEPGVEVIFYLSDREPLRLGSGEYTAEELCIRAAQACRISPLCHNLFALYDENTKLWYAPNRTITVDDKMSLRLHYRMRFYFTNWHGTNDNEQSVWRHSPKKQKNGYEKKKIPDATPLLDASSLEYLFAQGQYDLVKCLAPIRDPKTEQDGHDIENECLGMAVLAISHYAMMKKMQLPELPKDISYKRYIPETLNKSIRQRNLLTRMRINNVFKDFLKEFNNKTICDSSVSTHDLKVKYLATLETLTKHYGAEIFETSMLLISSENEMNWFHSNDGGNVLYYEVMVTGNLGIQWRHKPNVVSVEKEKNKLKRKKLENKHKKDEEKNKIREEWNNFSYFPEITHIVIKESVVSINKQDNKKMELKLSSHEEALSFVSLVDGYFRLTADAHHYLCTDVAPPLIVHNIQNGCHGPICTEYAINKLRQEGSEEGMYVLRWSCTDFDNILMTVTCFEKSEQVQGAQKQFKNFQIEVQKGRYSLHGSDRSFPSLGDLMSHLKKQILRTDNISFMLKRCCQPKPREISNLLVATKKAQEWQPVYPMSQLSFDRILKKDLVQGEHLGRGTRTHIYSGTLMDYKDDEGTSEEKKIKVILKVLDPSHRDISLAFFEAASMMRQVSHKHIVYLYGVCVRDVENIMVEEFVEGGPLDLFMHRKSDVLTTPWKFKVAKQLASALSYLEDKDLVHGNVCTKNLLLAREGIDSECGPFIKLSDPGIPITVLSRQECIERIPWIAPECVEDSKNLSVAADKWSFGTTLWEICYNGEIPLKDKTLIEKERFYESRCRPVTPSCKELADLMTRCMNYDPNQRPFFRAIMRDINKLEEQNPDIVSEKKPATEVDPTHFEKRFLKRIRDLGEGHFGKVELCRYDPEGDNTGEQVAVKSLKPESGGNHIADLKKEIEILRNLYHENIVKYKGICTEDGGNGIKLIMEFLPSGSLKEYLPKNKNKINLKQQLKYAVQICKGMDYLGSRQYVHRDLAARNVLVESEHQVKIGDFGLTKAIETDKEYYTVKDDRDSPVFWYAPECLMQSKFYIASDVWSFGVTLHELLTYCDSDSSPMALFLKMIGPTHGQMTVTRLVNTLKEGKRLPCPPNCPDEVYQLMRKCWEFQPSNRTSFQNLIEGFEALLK

As usually defined, the IC50 is the concentration that inhibits the measured activity by half. Low readings indicate greater potency in that assay, high ones weaker potency in that assay. `N#CCC(CN1CCN(C(=O)c2ccc(C#N)cc2F)CC1)n1cc(-c2ncnc3[nH]ccc23)cn1` (stereo not drawn) [US10065963, Compound 5]: in assay [1], the 50% inhibitory concentration (IC50) was < 0.1 µM.

For `C[C@H](NC(=O)c1c(N)nn2cccnc12)c1cc(Cl)c2cncn2c1N1CCS(=O)(=O)[C@@H](C)C1` [US10065963, Example 31B], the 50% inhibitory concentration (IC50) in assay [2] and in assay [3] was < 0.1 µM in each case.
